Data published in ChEMBL document CHEMBL1130697, “C24 and C25 substituted marcfortine A derivatives” (Bioorg Med Chem Lett, 1998).
Calls of active or inactive are those of the source. The rule behind the calls is not given here.

How the values were obtained:
Gerbillinae [1] = assay: Anthelmintic activity against immunosuppressed Mongolian gerblis(jirds) inoculated with Haemonchus contortus and Trichostrongylus colubriform; not active; assay type: functional
Gerbillinae [2] = assay: Anthelmintic activity against immunosuppressed Mongolian gerblis(jirds) inoculated with Haemonchus contortus and Trichostrongylus colubriform;found to be active; assay type: functional

Row | SMILES | Activity (Gerbillinae [1]) | Activity (Gerbillinae [2])
1 | CN1C(=O)[C@@]23CCCCN2C[C@@]12C[C@@]1(C(=O)Nc4c1ccc1c4OCC(=O)C(C)(C)O1)C(C)(C)[C@H]2C3 | inactive | 
2 | CN1C(=O)[C@]23C[C@@H]4C(C)(C)[C@@]5(C[C@@]41CN2CC[C@@]3(C)O)C(=O)Nc1c5ccc2c1OC=CC(C)(C)O2 | inactive | 
3 | C=C1COc2c(ccc3c2NC(=O)[C@@]32C[C@@]34CN5CCCC[C@]5(C[C@@H]3C2(C)C)C(=O)N4C)OC1(C)C |  | Active
4 | CN1C(=O)[C@@]23CCCCN2C[C@@]12C[C@@]1(C(=O)Nc4c1ccc1c4OCC(C)(O)C(C)(C)O1)C(C)(C)[C@H]2C3 (stereo not given in full) | inactive | 
5 | CN1C(=O)[C@@]23CCCCN2C[C@@]12C[C@@]1(C(=O)Nc4c1ccc1c4OCC4(CO4)C(C)(C)O1)C(C)(C)[C@H]2C3 (stereo not given in full) | inactive | 
6 | CN1C(=O)[C@@]23CCCCN2C[C@@]12C[C@@]1(C(=O)Nc4c1ccc1c4OCC(O)C(C)(C)O1)C(C)(C)[C@H]2C3 (stereo not given in full) | inactive | 
7 | C=C1COc2ccc3c(c2OC1)NC(=O)[C@@]31C[C@@]23CN4CCCC[C@]4(C[C@@H]2C1(C)C)C(=O)N3C | inactive | 
8 | CN1C(=O)[C@@]23CCCCN2C[C@@]12C[C@@]1(C(=O)Nc4c1ccc1c4OC=CC(C)(C)O1)C(C)(C)[C@H]2C3 | inactive | 
9 | CN1C(=O)[C@@]23CCCCN2C[C@@]12C[C@@]1(C(=O)Nc4c1ccc(O)c4O)C(C)(C)[C@H]2C3 | inactive | 
10 | CC1=COc2c(ccc3c2NC(=O)[C@@]32C[C@@]34CN5CCCC[C@]5(C[C@@H]3C2(C)C)C(=O)N4C)OC1(C)C | inactive | 
